{
  "source": "ChEMBL document CHEMBL1681702",
  "about": "“Biological activity and ligand binding mode to the progesterone receptor of A-homo analogues of progesterone” (Bioorg Med Chem, 2011)",
  "key": {"[1]": {"biological_target": "T1, Progesterone receptor (Homo sapiens) (UniProt P06401)", "T1 sequence (whole entry)": "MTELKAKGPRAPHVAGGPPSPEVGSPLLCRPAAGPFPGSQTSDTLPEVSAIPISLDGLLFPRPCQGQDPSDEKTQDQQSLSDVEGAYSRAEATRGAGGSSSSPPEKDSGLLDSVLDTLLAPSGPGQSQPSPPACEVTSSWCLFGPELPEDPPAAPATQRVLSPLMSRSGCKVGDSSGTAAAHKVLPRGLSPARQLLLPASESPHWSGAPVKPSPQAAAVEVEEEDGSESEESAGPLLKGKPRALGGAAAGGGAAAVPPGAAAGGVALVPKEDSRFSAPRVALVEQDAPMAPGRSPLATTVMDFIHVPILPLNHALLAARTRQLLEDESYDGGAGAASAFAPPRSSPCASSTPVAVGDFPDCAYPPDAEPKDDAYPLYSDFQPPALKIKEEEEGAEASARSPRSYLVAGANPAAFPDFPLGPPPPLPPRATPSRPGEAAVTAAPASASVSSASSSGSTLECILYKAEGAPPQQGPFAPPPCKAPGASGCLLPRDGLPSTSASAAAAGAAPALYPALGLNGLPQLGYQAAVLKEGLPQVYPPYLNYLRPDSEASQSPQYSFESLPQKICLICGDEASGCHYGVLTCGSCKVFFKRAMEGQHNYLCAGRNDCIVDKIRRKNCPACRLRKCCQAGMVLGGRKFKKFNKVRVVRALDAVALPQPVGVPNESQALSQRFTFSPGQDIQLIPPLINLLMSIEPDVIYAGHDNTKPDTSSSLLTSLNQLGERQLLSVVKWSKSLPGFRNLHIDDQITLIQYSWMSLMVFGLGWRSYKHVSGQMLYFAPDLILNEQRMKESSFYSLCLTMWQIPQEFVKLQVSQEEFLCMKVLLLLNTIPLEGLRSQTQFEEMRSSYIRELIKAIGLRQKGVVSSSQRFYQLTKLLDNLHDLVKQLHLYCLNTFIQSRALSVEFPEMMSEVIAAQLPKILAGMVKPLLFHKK", "assay": "Transactivation activity at human progesterone receptor isoform B expressed in human Cos1 cells co-transfected with luciferase reporter gene linked to MMTV promoter at 10^-7 M after 24 hrs", "type": "cell-based"}, "[2]": {"biological_target": "T2, Mineralocorticoid receptor (Homo sapiens) (UniProt P08235)", "T2 sequence (whole entry)": "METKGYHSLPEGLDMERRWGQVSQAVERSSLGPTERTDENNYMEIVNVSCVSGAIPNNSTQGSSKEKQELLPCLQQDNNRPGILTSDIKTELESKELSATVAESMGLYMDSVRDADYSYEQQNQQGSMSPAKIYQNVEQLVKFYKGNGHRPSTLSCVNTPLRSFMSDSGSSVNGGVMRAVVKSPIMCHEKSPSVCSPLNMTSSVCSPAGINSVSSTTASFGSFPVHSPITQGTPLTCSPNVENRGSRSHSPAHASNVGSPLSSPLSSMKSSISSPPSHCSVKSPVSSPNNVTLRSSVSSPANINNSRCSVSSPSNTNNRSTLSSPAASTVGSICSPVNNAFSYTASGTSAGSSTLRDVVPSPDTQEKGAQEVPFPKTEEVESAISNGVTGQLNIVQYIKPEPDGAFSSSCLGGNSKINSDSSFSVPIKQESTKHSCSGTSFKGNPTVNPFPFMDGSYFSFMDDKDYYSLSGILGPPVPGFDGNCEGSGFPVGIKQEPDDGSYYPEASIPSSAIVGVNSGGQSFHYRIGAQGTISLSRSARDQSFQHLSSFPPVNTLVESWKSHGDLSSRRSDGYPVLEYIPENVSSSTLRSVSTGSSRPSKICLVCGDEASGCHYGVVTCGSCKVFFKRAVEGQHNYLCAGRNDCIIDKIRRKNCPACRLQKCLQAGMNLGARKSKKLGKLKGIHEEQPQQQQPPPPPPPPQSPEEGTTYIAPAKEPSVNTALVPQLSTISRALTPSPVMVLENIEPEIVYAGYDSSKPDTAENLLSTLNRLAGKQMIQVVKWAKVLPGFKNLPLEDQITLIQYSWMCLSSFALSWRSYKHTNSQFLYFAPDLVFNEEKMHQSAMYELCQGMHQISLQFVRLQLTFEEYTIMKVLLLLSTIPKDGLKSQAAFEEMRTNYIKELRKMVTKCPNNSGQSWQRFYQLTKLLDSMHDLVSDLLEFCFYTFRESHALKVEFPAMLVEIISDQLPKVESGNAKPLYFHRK", "assay": "Antagonist activity at human MR expressed in human Cos1 cells co-transfected with luciferase reporter gene linked to MMTV promoter and pCMV-LacZ vector assessed as effect on aldosterone-induced activity at 10^-5 M after 24 hrs", "type": "functional, cell-based"}, "[3]": {"biological_target": "T1, Progesterone receptor (Homo sapiens)", "assay": "Transactivation activity at human progesterone receptor isoform B expressed in human Cos1 cells co-transfected with luciferase reporter gene linked to MMTV promoter at 10^-6 M after 24 hrs", "type": "cell-based"}, "[4]": {"biological_target": "T2, Mineralocorticoid receptor (Homo sapiens)", "assay": "Transactivation activity at human MR expressed in human Cos1 cells co-transfected with luciferase reporter gene linked to MMTV promoter and pCMV-LacZ vector at 10^-5 M after 24 hrs", "type": "cell-based"}, "[5]": {"biological_target": "T1, Progesterone receptor (Homo sapiens)", "assay": "Agonist activity at human progesterone receptor in human T47D cells assessed as induction of Bcl-xL gene expression at 10^-6 M after 6 hrs by quantitative PCR", "type": "functional, cell-based"}},
  "note": "The source made the active and inactive calls. No cut-off for these calls is given here.",
  "data": [
    {"smiles": "CC(=O)[C@H]1CC[C@H]2[C@@H]3CC=C4CC(=O)CCC[C@]4(C)[C@H]3CC[C@]12C", "values": [
      {"measurement": "Activity", "setting": "[1]", "value": "Active"},
      {"measurement": "Activity", "setting": "[2]", "value": "inactive"},
      {"measurement": "Activity", "setting": "[3]", "value": "Active"},
      {"measurement": "Activity", "setting": "[4]", "value": "inactive"},
      {"measurement": "Activity", "setting": "[5]", "value": "Active"}
    ]},
    {"smiles": "CC(=O)[C@H]1CC[C@H]2[C@@H]3CC=C4CCC(=O)CC[C@]4(C)[C@H]3CC[C@]12C", "values": [
      {"measurement": "Activity", "setting": "[1]", "value": "Active"},
      {"measurement": "Activity", "setting": "[2]", "value": "inactive"},
      {"measurement": "Activity", "setting": "[3]", "value": "Active"},
      {"measurement": "Activity", "setting": "[4]", "value": "inactive"},
      {"measurement": "Activity", "setting": "[5]", "value": "Active"}
    ]}
  ]
}
